Experiments:
Assay type in all cases: functional
TK-10 = experiment: Cytotoxicity against human TK10 cells assessed as cell growth at 0.01 uM after 48 hrs by SRB assay relative to control; conditions: TK-10, 48 h, read-out: Activity
NCI-H226 = experiment: Cytotoxicity against human NCI-H226 cells after 48 hrs by SRB assay; conditions: NCI-H226, 48 h
DU-145 [1] = experiment: Cytotoxicity against human DU145 cells assessed as cell growth at 0.1 uM after 48 hrs by SRB assay relative to control; conditions: DU-145, 48 h, read-out: Activity
UACC-62 = experiment: Cytotoxicity against human UACC62 cells after 48 hrs by SRB assay; conditions: UACC-62, 48 h
KM12 [2] = experiment: Cytotoxicity against human KM12 cells assessed as cell growth at 100 uM after 48 hrs by SRB assay relative to control; conditions: KM12, 48 h, read-out: Activity
Hs-578T [3] = experiment: Cytotoxicity against human Hs 578T cells after 48 hrs by SRB assay
A549 = experiment: Cytotoxicity against human A549 cells assessed as cell growth at 0.01 uM after 48 hrs by SRB assay relative to control; conditions: A549, 48 h, read-out: Activity
NCI-H522 [4] = experiment: Cytotoxicity against human NCI-H522 cells assessed as cell growth at 0.1 uM after 48 hrs by SRB assay relative to control; conditions: NCI-H522, 48 h, read-out: Activity
MDA-MB-231 = experiment: Cytotoxicity against human MDA-MB-231 cells assessed as cell growth at 0.1 uM after 48 hrs by SRB assay relative to control; conditions: MDA-MB-231, 48 h, read-out: Activity
HOP-92 [5] = experiment: Cytotoxicity against human HOP92 cells after 48 hrs by SRB assay; conditions: HOP-92, 48 h; for CC50: read-out: LC50 (the source's name)
MOLT-4 [6] = experiment: Cytotoxicity against human MOLT4 cells assessed as cell growth at 0.1 uM after 48 hrs by SRB assay relative to control; conditions: MOLT-4, 48 h, read-out: Activity
Hs-578T [7] = experiment: Cytotoxicity against human Hs 578T cells assessed as cell growth at 0.01 uM after 48 hrs by SRB assay relative to control; conditions: read-out: Activity
IGROV-1 = experiment: Cytotoxicity against human IGROV1 cells assessed as cell growth at 0.1 uM after 48 hrs by SRB assay relative to control; conditions: IGROV-1, 48 h, read-out: Activity
MDA-MB-435 = experiment: Cytotoxicity against human MDA-MB-435 cells assessed as cell growth at 0.1 uM after 48 hrs by SRB assay relative to control; conditions: MDA-MB-435, 48 h, read-out: Activity
SF-268 = experiment: Cytotoxicity against human SF268 cells assessed as cell growth at 0.1 uM after 48 hrs by SRB assay relative to control; conditions: SF-268, 48 h, read-out: Activity
HOP-92 [8] = experiment: Cytotoxicity against human HOP92 cells assessed as cell growth at 0.1 uM after 48 hrs by SRB assay relative to control; conditions: HOP-92, 48 h, read-out: Activity
Malme-3M = experiment: Cytotoxicity against human MALME-3M cells assessed as cell growth at 0.1 uM after 48 hrs by SRB assay relative to control; conditions: read-out: Activity
HOP-92 [9] = experiment: Cytotoxicity against human HOP92 cells assessed as cell growth at 1 uM after 48 hrs by SRB assay relative to control; conditions: HOP-92, 48 h, read-out: Activity
NCI-H522 [10] = experiment: Cytotoxicity against human NCI-H522 cells assessed as cell growth at 0.01 uM after 48 hrs by SRB assay relative to control; conditions: NCI-H522, 48 h, read-out: Activity
NCI/ADR-RES = experiment: Cytotoxicity against human NCI-ADR-RES cells assessed as cell growth at 0.01 uM after 48 hrs by SRB assay relative to control; conditions: read-out: Activity
BT-549 = experiment: Cytotoxicity against human BT549 cells after 48 hrs by SRB assay; conditions: BT-549, 48 h
SN12C = experiment: Cytotoxicity against human SN12C cells assessed as cell growth at 100 uM after 48 hrs by SRB assay relative to control; conditions: read-out: Activity
KM12 [11] = experiment: Cytotoxicity against human KM12 cells after 48 hrs by SRB assay; conditions: KM12, 48 h
K562 [12] = experiment: Cytotoxicity against human K562 cells after 48 hrs by SRB assay; conditions: K562, 48 h
LOX IMVI = experiment: Cytotoxicity against human LOXIMVI cells assessed as cell growth at 100 uM after 48 hrs by SRB assay relative to control; conditions: read-out: Activity
MCF7 = experiment: Cytotoxicity against human MCF7 cells after 48 hrs by SRB assay; conditions: MCF7, 48 h
CCRF-CEM = experiment: Cytotoxicity against human CCRF-CEM cells assessed as cell growth at 100 uM after 48 hrs by SRB assay relative to control; conditions: read-out: Activity
T47D = experiment: Cytotoxicity against human T47D cells assessed as cell growth at 1 uM after 48 hrs by SRB assay relative to control; conditions: read-out: Activity
DU-145 [13] = experiment: Cytotoxicity against human DU145 cells after 48 hrs by SRB assay; conditions: DU-145, 48 h
A498 = experiment: Cytotoxicity against human A498 cells assessed as cell growth at 0.1 uM after 48 hrs by SRB assay relative to control; conditions: A498, 48 h, read-out: Activity
SW-620 = experiment: Cytotoxicity against human SW620 cells assessed as cell growth at 1 uM after 48 hrs by SRB assay relative to control; conditions: SW-620, 48 h, read-out: Activity
HOP-62 = experiment: Cytotoxicity against human HOP62 cells after 48 hrs by SRB assay; conditions: HOP-62, 48 h; for CC50: read-out: LC50 (the source's name)
M14 = experiment: Cytotoxicity against human M14 cells assessed as cell growth at 0.01 uM after 48 hrs by SRB assay relative to control; conditions: M14, 48 h, read-out: Activity
786-0 = experiment: Cytotoxicity against human 786-O cells assessed as cell growth at 0.1 uM after 48 hrs by SRB assay relative to control; conditions: 786-0, 48 h, read-out: Activity
SK-MEL-5 = experiment: Cytotoxicity against human SK-MEL-5 cells assessed as cell growth at 100 uM after 48 hrs by SRB assay relative to control; conditions: SK-MEL-5, 48 h, read-out: Activity
MOLT-4 [14] = experiment: Cytotoxicity against human MOLT4 cells assessed as cell growth at 0.01 uM after 48 hrs by SRB assay relative to control; conditions: MOLT-4, 48 h, read-out: Activity
K562 [15] = experiment: Cytotoxicity against human K562 cells assessed as cell growth at 0.01 uM after 48 hrs by SRB assay relative to control; conditions: K562, 48 h, read-out: Activity

Cn1cc(C2=C(c3cn(C)c4ncccc34)C(=O)NC2=O)c2ccccc21 gave a growth at 0.01 µM (TK-10) of 100%, a GI50 (NCI-H226) of 2.24 µM and a TGI (NCI-H226) of 6.84 µM. It also gave a growth at 0.1 µM (DU-145 [1]) of 102%, a GI50 (UACC-62) of 4.22 µM and a TGI (UACC-62) of 22 µM. The growth at 100 µM (KM12 [2]) was -86%, the GI50 (Hs-578T [3]) was 0.847 µM and the TGI (Hs-578T [3]) was 4.08 µM. It also gave a growth at 0.01 µM (A549) of 99%, a growth at 0.1 µM (NCI-H522 [4]) of 98% and a growth at 0.1 µM (MDA-MB-231) of 104%. It also gave a GI50 (HOP-92 [5]) of 2.54 µM, a TGI (HOP-92 [5]) of 23.4 µM and a CC50 (HOP-92 [5]) greater than 100 µM. The growth at 0.1 µM (MOLT-4 [6]) was 119%, the growth at 0.01 µM (Hs-578T [7]) was 91% and the growth at 0.1 µM (IGROV-1) was 97%. The growth at 0.1 µM (MDA-MB-435) was 93%, the growth at 0.1 µM (SF-268) was 102% and the growth at 0.1 µM (HOP-92 [8]) was 83%. It also gave a growth at 0.1 µM (Malme-3M) of 112%, a growth at 1 µM (HOP-92 [9]) of 76% and a growth at 0.01 µM (NCI-H522 [10]) of 90%. It also gave a growth at 0.01 µM (NCI/ADR-RES) of 101%, a GI50 (BT-549) of 2.36 µM and a TGI (BT-549) of 8.09 µM. For the same compound, the growth at 100 µM (SN12C) was -14%, the GI50 (KM12 [11]) was 2.89 µM and the TGI (KM12 [11]) was 13.4 µM. The GI50 (K562 [12]) was 2.74 µM, the TGI (K562 [12]) was greater than 100 µM and the growth at 100 µM (LOX IMVI) was -18%. It also gave a GI50 (MCF7) of 2.4 µM, a TGI (MCF7) of 29.5 µM and a growth at 100 µM (CCRF-CEM) of 2%. It also gave a growth at 1 µM (T47D) of 74%, a GI50 (DU-145 [13]) of 6.24 µM and a TGI (DU-145 [13]) of 36.2 µM. It also gave a growth at 0.1 µM (A498) of 73%, a growth at 1 µM (SW-620) of 88% and a GI50 (HOP-62) of 3.69 µM. It also gave a TGI (HOP-62) of 36.7 µM, a CC50 (HOP-62) greater than 100 µM and a growth at 0.01 µM (M14) of 105%. It also gave a growth at 0.1 µM (786-0) of 101%, a growth at 100 µM (SK-MEL-5) of -94% and a growth at 0.01 µM (MOLT-4 [14]) of 103%. It also gave a growth at 0.01 µM (K562 [15]) of 108%.
N#CCCCCCn1cc(C2=C(c3cn(CCCCCC#N)c4ccccc34)C(=O)N(O)C2=O)c2ccccc21 was tested, and the growth at 0.01 µM (TK-10) was 93%, the GI50 (NCI-H226) was 7.26 µM and the LC50 (NCI-H226) was greater than 100 µM. It also gave a TGI (NCI-H226) of 70.8 µM, a growth at 0.1 µM (DU-145 [1]) of 103% and a GI50 (UACC-62) of 3.23 µM. The LC50 (UACC-62) was 84.4 µM, the TGI (UACC-62) was 16 µM and the growth at 100 µM (KM12 [2]) was -23%. It also gave a GI50 (Hs-578T [3]) of 3.97 µM, an LC50 (50% lethal concentration) (Hs-578T [3]) greater than 100 µM and a TGI (Hs-578T [3]) greater than 100 µM. It also gave a growth at 0.01 µM (A549) of 100%, a growth at 0.1 µM (NCI-H522 [4]) of 86% and a growth at 0.1 µM (MDA-MB-231) of 91%. It also gave a GI50 (HOP-92 [5]) of 5.03 µM, a TGI (HOP-92 [5]) greater than 100 µM and a CC50 (HOP-92 [5]) greater than 100 µM. For the same compound, the growth at 0.1 µM (MOLT-4 [6]) was 81%, the growth at 0.01 µM (Hs-578T [7]) was 93% and the growth at 0.1 µM (IGROV-1) was 101%. For the same compound, the growth at 0.1 µM (MDA-MB-435) was 95%, the growth at 0.1 µM (SF-268) was 95% and the growth at 0.1 µM (HOP-92 [8]) was 97%. For the same compound, the growth at 0.1 µM (Malme-3M) was 94%, the growth at 1 µM (HOP-92 [9]) was 109% and the growth at 0.01 µM (NCI-H522 [10]) was 89%. For the same compound, the growth at 0.01 µM (NCI/ADR-RES) was 100%, the GI50 (BT-549) was 3.44 µM and the LC50 (BT-549) was greater than 100 µM. It also gave a TGI (BT-549) of 24.5 µM, a growth at 100 µM (SN12C) of 5% and a GI50 (KM12 [11]) of 4.78 µM. The LC50 (KM12 [11]) was greater than 100 µM, the TGI (KM12 [11]) was 33.1 µM and the GI50 (K562 [12]) was 3.59 µM. For the same compound, the LC50 (concentration killing 50% of cells) (K562 [12]) was greater than 100 µM, the TGI (K562 [12]) was greater than 100 µM and the growth at 100 µM (LOX IMVI) was -9%. The GI50 (MCF7) was 3.57 µM, the LC50 (concentration killing 50% of cells) (MCF7) was greater than 100 µM and the TGI (MCF7) was 30.7 µM. For the same compound, the growth at 100 µM (CCRF-CEM) was 3%, the growth at 1 µM (T47D) was 89% and the GI50 (DU-145 [13]) was 27.8 µM. It also gave an LC50 (50% lethal concentration) (DU-145 [13]) greater than 100 µM, a TGI (DU-145 [13]) greater than 100 µM and a growth at 0.1 µM (A498) of 82%. The growth at 1 µM (SW-620) was 91%, the GI50 (HOP-62) was 7.94 µM and the TGI (HOP-62) was greater than 100 µM. It also gave a CC50 (HOP-62) greater than 100 µM, a growth at 0.01 µM (M14) of 97% and a growth at 0.1 µM (786-0) of 101%. For the same compound, the growth at 100 µM (SK-MEL-5) was -80%, the growth at 0.01 µM (MOLT-4 [14]) was 87% and the growth at 0.01 µM (K562 [15]) was 85%.

— ChEMBL document CHEMBL4229455, “Synthesis and anticancer activity of novel bisindolylhydroxymaleimide derivatives with potent GSK-3 kinase inhibition” (Bioorg Med Chem, 2018)
